Values of other authors in patent US20200360292A1, “OIL-SOLUBLE DRUG CONTAINING COMPOSITIONS AND METHODS OF USE THEREOF” (priority 2019, published 2020).

Settings: inhalation

CCCCCc1cc(O)c2c(c1)OC(C)(C)[C@@H]1CCC(C)=C[C@@H]21 [THC, Δ9-tetrahydrocannabinol]
Time to maximum plasma concentration: within minutes
